Experimental data reported in PubChem BioAssay (NCI).
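In this assay, cells in 96-well plates receive the compound at five concentrations for 48 hours. Endpoints are linearly interpolated between the surrounding concentrations. GI50 is the concentration that inhibits growth by half. At the TGI there is no net growth.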

Key:
Experiment in all cases: DTP human tumour cell line panel, 48 h; in the data active means GI50 below about 0.43 µM; inactive means the rest
HCC-2998 colon = tested on: HCC-2998 colon
NCI/ADR-RES ovarian = tested on: NCI/ADR-RES ovarian
SW-620 colon = tested on: SW-620 colon
BT-549 breast = tested on: BT-549 breast
HOP-92 NSCLC = tested on: HOP-92 NSCLC
M14 melanoma = tested on: M14 melanoma
MCF7 breast = tested on: MCF7 breast
K-562 leukemia = tested on: K-562 leukemia
RXF 393 renal = tested on: RXF 393 renal
NCI-H522 lung = tested on: NCI-H522 lung
SK-MEL-2 melanoma = tested on: SK-MEL-2 melanoma
U251 CNS = tested on: U251 CNS
SF-268 CNS = tested on: SF-268 CNS
MDA-MB-231 breast = tested on: MDA-MB-231 breast
CCRF-CEM leukemia = tested on: CCRF-CEM leukemia
SK-MEL-5 melanoma = tested on: SK-MEL-5 melanoma
HCT-15 colon = tested on: HCT-15 colon
A549 NSCLC = tested on: A549 NSCLC
UO-31 renal = tested on: UO-31 renal
SK-OV-3 ovarian = tested on: SK-OV-3 ovarian
ACHN renal = tested on: ACHN renal
UACC-62 melanoma = tested on: UACC-62 melanoma
NCI-H23 lung = tested on: NCI-H23 lung
HT29 colon = tested on: HT29 colon
OVCAR-4 ovarian = tested on: OVCAR-4 ovarian
DU-145 prostate = tested on: DU-145 prostate
SK-MEL-28 melanoma = tested on: SK-MEL-28 melanoma
CAKI-1 renal = tested on: CAKI-1 renal
MALME-3M melanoma = tested on: MALME-3M melanoma
NCI-H460 lung = tested on: NCI-H460 lung
TK-10 renal = tested on: TK-10 renal
SF-295 CNS = tested on: SF-295 CNS
786-0 renal = tested on: 786-0 renal
NCI-H226 lung = tested on: NCI-H226 lung
RPMI-8226 leukemia = tested on: RPMI-8226 leukemia
HCT-116 colon = tested on: HCT-116 colon
OVCAR-8 ovarian = tested on: OVCAR-8 ovarian
SR leukemia = tested on: SR leukemia
OVCAR-5 ovarian = tested on: OVCAR-5 ovarian
SF-539 CNS = tested on: SF-539 CNS
COLO 205 colon = tested on: COLO 205 colon
UACC-257 melanoma = tested on: UACC-257 melanoma
A498 renal = tested on: A498 renal
HS 578T breast = tested on: HS 578T breast
LOX IMVI melanoma = tested on: LOX IMVI melanoma
HL-60(TB) leukemia = tested on: HL-60(TB) leukemia
SNB-19 CNS = tested on: SNB-19 CNS
SNB-75 CNS = tested on: SNB-75 CNS
T-47D breast = tested on: T-47D breast
IGROV1 ovarian = tested on: IGROV1 ovarian
PC-3 prostate = tested on: PC-3 prostate
MOLT-4 leukemia = tested on: MOLT-4 leukemia
KM12 colon = tested on: KM12 colon
HOP-62 NSCLC = tested on: HOP-62 NSCLC
MDA-MB-435 = tested on: MDA-MB-435
SN12C renal = tested on: SN12C renal
OVCAR-3 ovarian = tested on: OVCAR-3 ovarian

Nc1c(C(=O)c2cccc(-c3ccc[n+]([O-])c3)c2)cnn1-c1ccc(F)cc1F
> 25 µM: TGI (HCC-2998 colon) | TGI (NCI/ADR-RES ovarian) | TGI (SW-620 colon) | TGI (BT-549 breast) | TGI (HOP-92 NSCLC) | TGI (M14 melanoma) | TGI (MCF7 breast) | TGI (K-562 leukemia) | TGI (RXF 393 renal) | TGI (NCI-H522 lung) | TGI (SK-MEL-2 melanoma) | TGI (U251 CNS) | TGI (SF-268 CNS) | TGI (MDA-MB-231 breast) | TGI (CCRF-CEM leukemia) | TGI (SK-MEL-5 melanoma) | TGI (HCT-15 colon) | TGI (A549 NSCLC) | TGI (UO-31 renal) | TGI (SK-OV-3 ovarian) | TGI (ACHN renal) | TGI (UACC-62 melanoma) | TGI (NCI-H23 lung) | TGI (HT29 colon) | TGI (OVCAR-4 ovarian) | TGI (DU-145 prostate) | TGI (SK-MEL-28 melanoma) | TGI (CAKI-1 renal) | TGI (MALME-3M melanoma) | TGI (NCI-H460 lung) | TGI (TK-10 renal) | TGI (SF-295 CNS) | TGI (786-0 renal) | TGI (NCI-H226 lung) | TGI (RPMI-8226 leukemia) | TGI (HCT-116 colon) | TGI (OVCAR-8 ovarian) | TGI (SR leukemia) | TGI (OVCAR-5 ovarian) | TGI (SF-539 CNS) | TGI (COLO 205 colon) | TGI (UACC-257 melanoma) | TGI (A498 renal) | TGI (HS 578T breast) | TGI (LOX IMVI melanoma) | TGI (HL-60(TB) leukemia) | TGI (SNB-19 CNS) | TGI (SNB-75 CNS) | TGI (T-47D breast) | TGI (IGROV1 ovarian) | TGI (PC-3 prostate) | TGI (MOLT-4 leukemia) | TGI (KM12 colon) | TGI (HOP-62 NSCLC) | TGI (MDA-MB-435) | TGI (SN12C renal) | TGI (OVCAR-3 ovarian)
inactive: GI50 (HCC-2998 colon) > 25 µM | GI50 (NCI/ADR-RES ovarian) > 25 µM | GI50 (SW-620 colon) > 25 µM | GI50 (BT-549 breast) > 25 µM | GI50 (HOP-92 NSCLC) > 25 µM | GI50 (M14 melanoma) > 25 µM | GI50 (MCF7 breast) > 25 µM | GI50 (K-562 leukemia) > 25 µM | GI50 (RXF 393 renal) > 25 µM | GI50 (NCI-H522 lung) > 25 µM | GI50 (SK-MEL-2 melanoma) > 25 µM | GI50 (U251 CNS) > 25 µM | GI50 (SF-268 CNS) > 25 µM | GI50 (MDA-MB-231 breast) > 25 µM | GI50 (CCRF-CEM leukemia) > 25 µM | GI50 (SK-MEL-5 melanoma) > 25 µM | GI50 (HCT-15 colon) > 25 µM | GI50 (A549 NSCLC) > 25 µM | GI50 (UO-31 renal) > 25 µM | GI50 (SK-OV-3 ovarian) > 25 µM | GI50 (ACHN renal) > 25 µM | GI50 (UACC-62 melanoma) > 25 µM | GI50 (NCI-H23 lung) > 25 µM | GI50 (HT29 colon) > 25 µM | GI50 (OVCAR-4 ovarian) > 25 µM | GI50 (DU-145 prostate) > 25 µM | GI50 (SK-MEL-28 melanoma) > 25 µM | GI50 (CAKI-1 renal) > 25 µM | GI50 (MALME-3M melanoma) > 25 µM | GI50 (NCI-H460 lung) > 25 µM | GI50 (TK-10 renal) > 25 µM | GI50 (SF-295 CNS) > 25 µM | GI50 (786-0 renal) > 25 µM | GI50 (NCI-H226 lung) > 25 µM | GI50 (RPMI-8226 leukemia) > 25 µM | GI50 (HCT-116 colon) > 25 µM | GI50 (OVCAR-8 ovarian) > 25 µM | GI50 (SR leukemia) 17.8 µM | GI50 (OVCAR-5 ovarian) > 25 µM | GI50 (SF-539 CNS) > 25 µM | GI50 (COLO 205 colon) > 25 µM | GI50 (UACC-257 melanoma) > 25 µM | GI50 (A498 renal) > 25 µM | GI50 (HS 578T breast) > 25 µM | GI50 (LOX IMVI melanoma) > 25 µM | GI50 (HL-60(TB) leukemia) > 25 µM | GI50 (SNB-19 CNS) > 25 µM | GI50 (SNB-75 CNS) > 25 µM | GI50 (T-47D breast) > 25 µM | GI50 (IGROV1 ovarian) > 25 µM | GI50 (PC-3 prostate) > 25 µM | GI50 (MOLT-4 leukemia) > 25 µM | GI50 (KM12 colon) > 25 µM | GI50 (HOP-62 NSCLC) > 25 µM | GI50 (MDA-MB-435) 15.2 µM | GI50 (SN12C renal) > 25 µM | GI50 (OVCAR-3 ovarian) > 25 µM
